Assays:
[1] = system: rat anti-glomerular basement membrane (GBM) antibody induced nephritis model; test: rat anti-GBM antibody induced nephritis model (urinary protein excretion, plasma total cholesterol); format: in vivo; conditions: disease animal model showing nephrotic syndrome-like symptoms
Description: Using a rat anti-GBM antibody induced nephritis model, the suppressive effect of Compound A on an increase in urinary protein excretion and plasma total cholesterol concentration so was evaluated. The evaluation was performed by reference to non-patent document 2. As the experiment animal, 8-week-old female WKY/NCrlCrlj rat (CHARLES RIVER LABORATORIES JAPAN, INC.) was used. Monohydrochloride of Compound A was dissolved in 0.5% (w/v) methylcellulose (MC) to prepare 2 mg/mL and 6 mg/mL Compound A solutions. Ciclosporin (Wako Pure Chemical Industries, Ltd., 0.5% (w/v)) was suspended in MC to prepare a 2 mg/mL Ciclosporin suspension. […]
As for urine, the urine volume was measured, after which the protein concentration in the centrifugal supernatant was measured by absorbance at wavelength 600 nm/sub-wavelength 660 nm using a total protein assay kit (micro TP-Test Wako, Wako Pure Chemical Industries, Ltd.). The urinary protein excretion (mg/day) was calculated from the urine volume and the protein concentration.
As for blood, the total cholesterol concentration (mg/dL) in plasma obtained by centrifugation was measured using a biochemical automatic analysis apparatus (Hitachi automatic analysis apparatus 7180, Hitachi High-Technologies).
The mean of the urinary protein excretion and the plasma total cholesterol concentration was calculated.

[2] = target: T1, inducible T cell kinase (ITK) (Homo sapiens, UniProt Q08881); conditions: described in patent document 1 (WO 2011/065402); cited from earlier work
T1 sequence (Q08881 1-620): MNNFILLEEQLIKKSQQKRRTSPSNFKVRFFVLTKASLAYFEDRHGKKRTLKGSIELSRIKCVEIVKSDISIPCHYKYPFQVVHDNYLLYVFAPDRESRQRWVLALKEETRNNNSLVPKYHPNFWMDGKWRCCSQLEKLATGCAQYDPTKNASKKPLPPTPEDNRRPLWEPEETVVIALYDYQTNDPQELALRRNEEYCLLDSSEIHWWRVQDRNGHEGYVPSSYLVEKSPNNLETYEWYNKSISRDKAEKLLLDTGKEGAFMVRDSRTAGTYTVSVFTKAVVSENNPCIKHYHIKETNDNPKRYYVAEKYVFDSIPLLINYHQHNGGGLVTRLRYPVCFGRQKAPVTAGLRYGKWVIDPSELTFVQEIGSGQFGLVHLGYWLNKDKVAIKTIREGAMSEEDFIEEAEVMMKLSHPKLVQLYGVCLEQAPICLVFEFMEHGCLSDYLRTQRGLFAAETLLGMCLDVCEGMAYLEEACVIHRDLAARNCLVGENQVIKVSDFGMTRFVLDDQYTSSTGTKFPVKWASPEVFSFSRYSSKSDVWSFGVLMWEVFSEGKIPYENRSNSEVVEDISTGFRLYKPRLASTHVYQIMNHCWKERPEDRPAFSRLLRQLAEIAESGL

C[C@@H](C(=O)N(C)c1ccc2cc(-c3n[nH]c4c3CCC(C)(C)C4)[nH]c2c1)N1CCOCC1 [Compound A, N-[2-(6,6-dimethyl-4,5,6,7-tetrahydro-1H-indazol-3-yl)-1H-indol-6-yl]-N-methyl-(2S)-2-(morpholin-4-yl)propanamide]
severity of the disease [1]: significantly reduce severity of the disease
inducible T cell kinase (ITK) inhibitory activity [2]: has an inducible T cell kinase (ITK) inhibitory activity

Reference: patent US12011448B2, “Therapeutic or preventing agent for nephrotic syndrome including indole compound” (Japan Tobacco Inc., priority 2018, dated 2024)
